Data published in patent publication US9084770B2, “Modulation of insulin like growth factor I receptor expression in cancer” (Antisense Therapeutics, Ltd., priority 2008, dated 2015).
Marks after values point to notes of the source that are not given here.

What was measured:
LNCaP cells [1] = assay: LNCaP cell viability, crystal violet assay; format: cell-based, human
Experimental: (§1) Established methods were used to test the activity of IGF-IR antisense oligonucleotide on LNCaP and PC-3 cell growth (crystal violet assay) and apoptosis (FACS). Dose- and sequence-specific suppression of IGF-IR mRNA and protein expression in ATL1101-treated LNCaP and PC3 PC cell lines in vitro were observed by QT-PCR and western blotting. Effects of the IGF-IR antisense oligonucleotide on various putative targets, including IGF-IR and downstream targets were evaluated using western blotting.
(§2) Cells were transfected with indicated concentrations of ATL1101, control oligodeoxynucleotides or oligofectamine as in FIGS. 1A(i)-1A(ii). Three days after treatment, cell viability was determined by crystal violet assay. Viable cell density was normalized to that of cells treated with oligofectamine. Points, means of triplicate analysis; bars, SE. *, p<0.05 differs from control oligodeoxynucleotide treatment group. **, p<0.01 differs from control oligodeoxynucleotide treatment group by Student's t test.

PC3 cells [2] = assay: PC3 cell viability, crystal violet assay; format: cell-based, human; conditions: FBS media, achieved by 100 nM, three days after treatment
Experimental: as §1, §2

LNCaP cells [3] = assay: LNCaP cell cycle and apoptosis, flow cytometry with propidium iodide; format: cell-based, human; conditions: 100 nM
Experimental: as §1
(§3) The Effect of IGF-IR silencing with IGF-IR antisense oligonucleotide (ATL1101) on LNCaP and PC3 cell apoptosis and cell cycle is shown in FIGS. 4A(i)-(ii), 4B, 4C(i)-(ii), and Table 2. Cells were transfected with indicated concentrations of ATL1101, control oligodeoxynucleotide or oligofectamine as in FIGS. 1A(i)-1B(ii). Two days after treatment, cell cycle analysis was determined by flow cytometry using propidium iodide staining. […] In FIGS. 4C(i)-(ii), LNCaP (FIG. 4C (i)) or PC-3 (FIG. 4C (ii)) cells were transfected with indicated concentration of ATL1101 or control oligodeoxynucleotide (ISIS 306064) for two days. Cells were then cultured in FBS media for one day and in serum-free media for one day. Whole cell lysates (30 μg) were subjected to SDS-PAGE and immunoblotted to assess Cyclin D1, Cyclin E, p-RB, total Rb, and p27 protein levels. Oligo, oligofectamine treated cells only.

PC3 cells [4] = assay: PC3 cell cycle and apoptosis, flow cytometry with propidium iodide; format: cell-based, human; conditions: PC3, FBS condition, 200 nM
Experimental: as §1, §3

[5] = test system: Cyclin D1, Cyclin E, p-RB, p27; assay: Cell cycle proteins in LNCaP and PC-3 cells, immunoblot; format: cell-based, human
Experimental: as §3

LNCaP tumors = assay: LNCaP xenograft after castration, tumor volume and serum PSA; format: in vivo, mice; conditions: 15 mg/kg i.p. once daily for 7 days and 3 times per week thereafter; vs control oligodeoxynucleotide
Experimental: (§4) One million PC-3 or LNCaP cells were injected subcutaneously in athymic mice. For LNCaP xenografts, when PSA values exceeded 50 ng/ml, mice were castrated and randomly selected for treatment with ATL1101 or control oligodeoxynucleotide (15 mg/kg) injected i.p. once daily for 7 days and 3 times per week thereafter. Blood samples were obtained from the tail vein of the mice once weekly to measure serum PSA by ELISA. For PC-3 xenografts, when tumors reached 100 mm^3, mice were randomly selected and treated with the same protocol as LNCaP.
(§5) The effects of IGF-IR antisense oligonucleotide treatment in LNCaP and PC-3 tumors in vivo are show in FIGS. 5A-5C. LNCaP cells were inoculated s.c. and when PSA values exceeded 50 ng/ml, mice were castrated and randomly selected for treatment with ATL1101 or control oligodeoxynucleotide (15 mg/kg) injected i.p. once daily for 7 days and 3 times per week thereafter. Blood samples were obtained from the tail vein of the mice once weekly to measure serum PSA by ELISA. PC-3 cells were inoculated s.c. and when tumors reached 100 mm^3, mice were randomly selected for treatment with the same protocol as LNCaP. Each point represents the mean tumor volume in each group containing 10 mice; bars, SE. * differs from control oligodeoxynucleotide treatment group (p<0.05) by Student's t test.

PC3 tumors = assay: PC-3 xenograft, tumor volume (monotherapy); format: in vivo, mice; conditions: 15 mg/kg i.p.
Experimental: as §4, §5

IGF-IRβ, p-AKT, pERK1/2 = assay: PC3 xenograft tumor proteins, western blotting; format: in vivo; conditions: after 7 days of treatment; two of three mice
Experimental: Total PC3 xenograft tumor proteins were extracted after the treatment of IGFI-R antisense oligonucleotide or control oligodeoxynucleotide for 7 days and IGF-IRβ, p-AKT, pERK1/2, and vinculin protein levels were analyzed by western blotting. Tumor growth ratio of corresponding tumors are also shown (FIG. 5E).

IGF-IR mRNA [6] = assay: IGF-IR mRNA in PC3 Ptx-R cells; format: cell-based, human; conditions: 10 to 200 nM, compared to oligofectamine transfection reagent
Text: (§6) The PC3 Ptx-R cells retain sensitivity to ATL1101-induced IGF-IR down regulation at the mRNA and protein level as shown in FIGS. 11A-C. […] ATL1101 and the control oligodeoxynucleotide ISIS 306064 had no effect on either of the alternative spliced isoform transcripts of the insulin receptor, IR-A, IR-B or IR-β protein or vinculin protein levels.

IGF-IRβ subunit protein = IGF-IRβ subunit protein in PC3 Ptx-R cells; format: cell-based, human; conditions: 10 to 200 nM, compared to oligofectamine transfection reagent
Text: as §6

[7] = test system: insulin receptor IR-A, IR-B, IR-β protein; assay: Insulin receptor transcripts and protein in PC3 Ptx-R cells; format: cell-based, human
Text: as §6

Ptx-R PC3 cells = assay: Ptx-R PC3 viable cells after transfection with or without Paclitaxel; format: cell-based, human
Experimental: The number of viable PC3 and PtxR PC3 cells was determined 72 hours after the second transfection.
[…] The number of viable cells remaining was determined 72 hours after the second transfection treatment. ATL1101 treatment enhances the Ptx-R sensitivity to Paclitaxel under standard culture conditions. For example, there was approximately 45% cell viability with 100 nM Paclitaxel and 25 nM control oligodeoxynucleotide whereas, only 25 nM Paclitaxel is needed in the presence of 25 nM ATL1101 to produce the same reduction in cell viability.

IGF-IR mRNA [8] = conditions: other cell lines, dose-dependent and sequence specific; cited from earlier work

## cgaaggaaacaatactccga (CGAAGGAAACAATACTCCGA; 2'-MOE modified, pattern not given here) [ISIS 175317, 2′-MOE-modified IGF-IR antisense oligonucleotide, also known as ATL1101]
LNCaP cells [1]; FBS media, achieved by 100 nM, three days after treatment
  maximum reduction of cell viability relative to control: ~60%
LNCaP cells [1]; androgen-deprived conditions (CSS), 25 nM
  suppression of cell viability: 60%
PC3 cells [2]
  maximum reduction of cell viability relative to control: ~60%
LNCaP cells [3]; CSS condition
  % of total cells, G0/G1: 13.3%
  % of total cells, G2/M: 1.2%
  % of total cells, S: 1.2%
  % of total cells, Sub G0/G1: 84.3%
  subG0/G1 + G0/G1:S + G2/M: 40.7***
LNCaP cells [3]; FBS condition
  % of total cells, G0/G1: 32.8%
  % of total cells, G2/M: 2.8%
  % of total cells, S: 3.4%
  subG0/G1 + G0/G1:S + G2/M: 15.1**
LNCaP cells [3]; FBS condition, two days after treatment
  % of total cells, Sub G0/G1: 61%
PC3 cells [4]
  % of total cells, G0/G1: 19.3%
  % of total cells, G2/M: 8.4%
  % of total cells, S: 9.8%
  % of total cells, Sub G0/G1: 62.5%
  subG0/G1 + G0/G1:S + G2/M: 4.5**
[5]
  activation of Cyclin D1, Cyclin E, p-RB: suppressed
  p27 protein production: increased
LNCaP tumors
  PSA rise rates after castration: significantly delayed
  tumor growth after castration: significantly delayed
PC3 tumors
  tumor volume compared to control oligodeoxynucleotide: significantly reduced
IGF-IRβ, p-AKT, pERK1/2
  IGF-IR expression in tumor: decreased
  activation of AKT and ERK1/2 in tumor: suppressed
IGF-IR mRNA [6]
  IGF-IR mRNA levels: specifically reduced
IGF-IRβ subunit protein
  IGF-IRβ subunit protein levels: specifically reduced
[7]
  insulin receptor IR-A, IR-B transcripts or IR-β protein levels: no effect
Ptx-R PC3 cells; in the presence of 25 nM ATL1101
  Paclitaxel concentration needed to produce the same reduction in cell viability (approximately 45% viability): 25 nM
Ptx-R PC3 cells; up to 250 nM, 72 hours after second transfection, standard culture conditions
  sensitivity of viable cell number to ATL1101: retain ATL1101 sensitivity
IGF-IR mRNA [8]
  inhibition of IGF-IR mRNA expression: significantly inhibit
